Legend:
[1] = test system: soybean plants comprising EE-GM3; assay: field trials of EE-GM3 in different commercial genetic backgrounds, herbicide challenge; assay type: in vivo, Glycine max; conditions: glyphosate and/or isoxaflutole, different treatments, different locations and genetic backgrounds
Description: The selected event EE-GM3 was introduced in different commercial genetic backgrounds, and results of field trials on different locations were compared. Plants were challenged with glyphosate herbicide and/or isoxaflutole herbicide using different treatments. […] Hundreds of different soybean cultivars containing event EE-GM3 were used in an inheritance study, and herbicides were applied. Selected lines from this trial were later increased in the field and also treated with herbicide. From that trial, 50 selected lines were increased, and these were also herbicide treated.

[2] = test system: soybean plants comprising EE-GM3 and EE-GM2; assay: field trial of lines combining EE-GM3 and EE-GM2 sprayed with glyphosate and glufosinate; assay type: in vivo, Glycine max; conditions: approximately 40 lines homozygous for tolerance to both herbicides
Description: A soybean plant containing a combination of elite events EE-GM3 and EE-GM2 has been obtained by conventional crossing between a parent soybean plant comprising EE-GM3 and a parent soybean plant comprising EE-GM2. Progeny plants comprising both events are identified using PCR Identification Protocols for EE-GM2 and EE-GM3 as described herein. Specifically, crosses were made with plants containing EE-GM3 and plants containing EE-GM2. The resulting F1 plants were crossed to 4 conventional lines. The F1s from these crosses were grown in the field and sprayed with glyphosate and glufosinate. F2 seed harvested from F1 plants resistant to both herbicides was then planted. The F2 plants were sprayed with both glyphosate and glufosinate. Nine hundred plants tolerant to both herbicides were harvested and planted in a field trial. Expected Mendelian segregation data for the events was obtained in this trial. Approximately 40 lines homozygous for tolerance to both herbicides were selected for agronomic uniformity for further studies.

SMILES	herbicide tolerance of plants [1]	tolerance of selected homozygous lines to herbicide [2]
CS(=O)(=O)c1cc(C(F)(F)F)ccc1C(=O)c1cnoc1C1CC1 [IFT, (5-cyclopropyl-4-isoxazolyl)[2-(methylsulfonyl)-4-(trifluoromethyl)phenyl]methanone]	good herbicide tolerance	–
CP(=O)(O)CCC(N)C(=O)O (stereo not shown) [glufosinate]	–	good tolerance
O=C(O)CNCP(=O)(O)O [glyphosate]	good herbicide tolerance	good tolerance

From US9062324B2, “Herbicide tolerant soybean plants and methods for identifying same” (M.S. TECHNOLOGIES LLC, priority 2009, dated 2015)
